# Reference: patent US11453683B1, “KRas G12D inhibitors” (Mirati Therapeutics, Inc., priority 2019, dated 2022)
# Where a name gives a salt, the structure may show the parent alone.
# Target: KRas G12D (Homo sapiens (Human), UniProt P01116, G12D)
# Assay: KRas G12D Binding Assay (TR-FRET displacement)
# Conditions: TR-FRET displacement of Cy5 labelled tracer, GDP-loaded KRAS G12D, 60 minute incubation at 22° C.
# Procedure: After a 60 minute incubation at 22° C., the reaction was measured using a PerkinElmer EnVision multimode plate reader via TR-FRET dual wavelength detection, and the percent of control (POC) calculated using a ratiometric emission factor. […] The POC values were fit to a 4-parameter logistic curve and the IC50 value was determined as the concentration where the curve crosses 50 POC.
# Sequence of KRas G12D (P01116 other isoform, or with tags, fused parts or gaps G12D): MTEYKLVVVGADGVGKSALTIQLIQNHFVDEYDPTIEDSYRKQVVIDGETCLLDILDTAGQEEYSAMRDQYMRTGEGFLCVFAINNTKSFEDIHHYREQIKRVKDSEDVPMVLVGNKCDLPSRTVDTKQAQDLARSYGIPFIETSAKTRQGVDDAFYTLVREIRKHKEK
row,Compound,IC50
1,"Fc1c(-c2ccccc2C2CC2)ncc2c(N3CC4CCC(C3)N4)nc(OC[C@@]34CCCN3C[C@H](F)C4)nc12 (racemic) [Example 368, 4-((1R,5S)-3,8-diazabicyclo[3.2.1]octan-3-yl)-7-(2-cyclopropylphenyl)-8-fluoro-2-((2-fluorotetrahydro-1H-pyrrolizin-7a(5H)-yl)methoxy)pyrido[4,3-d]pyrimidine (racemic, trans)]",208 nM
2,"Cc1cc2[nH]ncc2c(-c2ncc3c(N4CC5CCC(C4)N5)nc(OC[C@@]45CCCN4C[C@H](F)C5)nc3c2F)c1Cl (racemic) [Example 376, 4-((1R,5S)-3,8-diazabicyclo[3.2.1]octan-3-yl)-7-(5-chloro-6-methyl-1H-indazol-4-yl)-8-fluoro-2-((2-fluorotetrahydro-1H-pyrrolizin-7a(5H)-yl)methoxy)pyrido[4,3-d]pyrimidine (racemic, trans)]",2.6 nM
3,"Oc1cccc(F)c1-c1ncc2c(N3CC4CCC(C3)N4)nc(OCC34CCCN3C[C@H](F)C4)nc2c1F (mixture of isomers) [Example 369, 2-(4-((1R,5S)-3,8-diazabicyclo[3.2.1]octan-3-yl)-8-fluoro-2-((2-fluorotetrahydro-1H-pyrrolizin-7a(5H)-yl)methoxy)pyrido[4,3-d]pyrimidin-7-yl)-3-fluorophenol (racemic, trans)]",221 nM
4,"Fc1c(-c2ccccc2CC(F)(F)F)ncc2c(N3CC4CCC(C3)N4)nc(OC[C@@]34CCCN3C[C@H](F)C4)nc12 (racemic) [Example 383, 4-((1R,5S)-3,8-diazabicyclo[3.2.1]octan-3-yl)-8-fluoro-2-((2-fluorotetrahydro-1H-pyrrolizin-7a(5H)-yl)methoxy)-7-(2-(2,2,2-trifluoroethyl)phenyl)pyrido[4,3-d]pyrimidine (racemic, trans)]",586 nM

# Tested on: KRas G12D-mediated phosphorylation of ERK
# Assay: Inhibition of KRas G12D-mediated phosphorylation of ERK in AGS cells
# Assay type: cell-based
# Conditions: Homo sapiens; AGS cells expressing G12D, 3 hours, phospho-ERK normalized to GAPDH
# Procedure, shortened: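 In-cell Western: p-ERK Thr202/Tyr204 signal over GAPDH, as % of DMSO control, with IC50 from a 4-parameter curve. AGS cells seeded 40,000/well for 12-14 h, exposed to compound 3 h at 0.5% DMSO final, then formaldehyde-fixed and methanol-permeabilized.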
row,Compound,IC50
1,"Fc1ccc2cccc(-c3ncc4c(N5C[C@H]6CC[C@@H](C5)N6)nc(OCC56CCCN5CCC6)nc4c3F)c2c1Cl [Example 98, 4-((1R,5S)-3,8-diazabicyclo[3.2.1]octan-3-yl)-7-(8-chloro-7-fluoronaphthalen-1-yl)-8-fluoro-2-((tetrahydro-1H-pyrrolizin-7a(5H)-yl)methoxy)pyrido[4,3-d]pyrimidine bis(2,2,2-trifluoroacetate)]",389 nM
2,"Oc1cc(-c2ncc3c(N4C[C@H]5CC[C@@H](C4)N5)nc(OCC4(C(F)(F)F)CC4)nc3c2F)c2ccccc2c1 [Example 51, 4-(4-((1R,5S)-3,8-diazabicyclo[3.2.1]octan-3-yl)-8-fluoro-2-((1-(trifluoromethyl)cyclopropyl)methoxy)pyrido[4,3-d]pyrimidin-7-yl)naphthalen-2-ol]",12100 nM
3,"CN1CCC[C@H]1COc1nc(N2C[C@H]3CC[C@@H](C2)N3)c2cnc(-c3cc(O)cc4ccccc34)cc2n1 [Example 1, 4-(4-((1R,5S)-3,8-diazabicyclo[3.2.1]octan-3-yl)-2-(((S)-1-methylpyrrolidin-2-yl)methoxy)pyrido[4,3-d]pyrimidin-7-yl)naphthalen-2-ol tris-hydrochloride salt]",3160 nM
4,"Nc1nc(N2CC3CCC(C2)N3)c2cnc(-c3cc(O)cc4ccccc34)c(F)c2n1 [Example 182, 4-[2-amino-4-(3,8-diazabicyclo[3.2.1]octan-3-yl)-8-fluoro-pyrido[4,3-d]pyrimidin-7-yl]naphthalen-2-ol]",13500 nM
5,"CCc1c(F)ccc2cccc(-c3ncc4c(N5CC6CCC(C5)N6)nc(OC[C@@]56CCCN5C[C@H](F)C6)nc4c3F)c12 (stereo in doubt) [Example 381, 4-((1R,5S)-3,8-diazabicyclo[3.2.1]octan-3-yl)-7-(8-ethyl-7-fluoronaphthalen-1-yl)-8-fluoro-2-((2-fluorotetrahydro-1H-pyrrolizin-7a(5H)-yl)methoxy)pyrido[4,3-d]pyrimidine]",708 nM
